Reference: US20180002319A1, “MACROCYCLIC PICOLINAMIDE COMPOUNDS WITH FUNGICIDAL ACTIVITY” (DOW AGROSCIENCES LLC, priority 2014, published 2018)
Read-outs that look alike come from different tables or passages of the source.

Legend:
Type in all cases: in vivo
Zymoseptoria tritici = experiment: Leaf Blotch of Wheat (SEPTTR) fungicidal activity; settings: wheat leaf blotch; for pest or weed control at 100 ppm: High Volume application; for pest or weed control at 121.5 g/ha: Low Volume application, 121.5 g/H
Summary of the method: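 Wheat seedlings (Yuma, first leaf emerged) were sprayed to run-off with compound in acetone/water containing Triton X-100 and inoculated with Z. tritici spores before or after treatment. Percent disease control comes from 0–100% severity on treated versus untreated plants.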

Uncinula necator = experiment: Grape Powdery Mildew (UNCINE) fungicidal activity; settings: Erysiphe necator, 24 h, 1DP (1 Day Protectant), read-out: UNCINE Disease Control
Experimental: Technical grades of materials were dissolved in acetone, which were then mixed with nine volumes of H2O containing 110 ppm Triton X-100. The fungicide solutions were applied onto wheat seedlings using an automated booth sprayer to run-off. All sprayed plants were allowed to air dry prior to further handling. All fungicides were evaluated using the aforementioned method for their activity vs. all target diseases, unless stated otherwise. Wheat leaf blotch and brown rust activity were also evaluated using track spray applications, in which case the fungicides were formulated as EC formulations, containing 0.1% Trycol 5941 in the spray solutions. Wheat plants (variety Yuma) were grown from seed in a greenhouse in 50% mineral soil/50% soil-less Metro mix until the first leaf was fully emerged, with 7-10 seedlings per pot. These plants were inoculated with an aqueous spore suspension of Zymoseptoria tritici either prior to or after fungicide treatments. After inoculation the plants were kept in 100% relative humidity (one day in a dark dew chamber followed by two to three days in a lighted dew chamber at 20° C.) to permit spores to germinate and infect the leaf. The plants were then transferred to a greenhouse set at 20° C. for disease to develop. When disease symptoms were fully expressed on the 1st leaves of untreated plants, infection levels were assessed on a scale of 0 to 100 percent disease severity. Percent disease control was calculated using the ratio of disease severity on treated plants relative to untreated plants. Example E: Evaluation of Fungicidal Activity: Grape Powdery Mildew (Uncinula necator; Bayer Code […]) Grape seedlings (variety Carignane) were grown in soil-less Metro mix, with one plant per pot, and used in the test when approximately one month old. Plants were inoculated 24 hr after fungicide treatment by shaking spores from infected leaves over test plants. Plants were maintained in a greenhouse set at 20° C. until disease was fully developed. Fungicide formulation, application and disease assessment on the sprayed leaves followed the procedures as described in the Example A.

[1] = tested on: Magnaporthe grisea; Anamorph: Pyricularia oryzae; experiment: whole plant or invertebrate; settings: 24 h, read-out: PYRIOR Disease Control
Cercospora beticola = experiment: Leaf Spot of Sugar Beets (CERCBE) fungicidal activity; settings: 24 h, 1DP (1 Day Protectant), sugar beet, read-out: CERCBE Disease Control
Experimental: Technical grades of materials were dissolved in acetone, which were then mixed with nine volumes of H2O containing 110 ppm Triton X-100. The fungicide solutions were applied onto wheat seedlings using an automated booth sprayer to run-off. All sprayed plants were allowed to air dry prior to further handling. All fungicides were evaluated using the aforementioned method for their activity vs. all target diseases, unless stated otherwise. Wheat leaf blotch and brown rust activity were also evaluated using track spray applications, in which case the fungicides were formulated as EC formulations, containing 0.1% Trycol 5941 in the spray solutions. Wheat plants (variety Yuma) were grown from seed in a greenhouse in 50% mineral soil/50% soil-less Metro mix until the first leaf was fully emerged, with 7-10 seedlings per pot. These plants were inoculated with an aqueous spore suspension of Zymoseptoria tritici either prior to or after fungicide treatments. After inoculation the plants were kept in 100% relative humidity (one day in a dark dew chamber followed by two to three days in a lighted dew chamber at 20° C.) to permit spores to germinate and infect the leaf. The plants were then transferred to a greenhouse set at 20° C. for disease to develop. When disease symptoms were fully expressed on the 1st leaves of untreated plants, infection levels were assessed on a scale of 0 to 100 percent disease severity. Percent disease control was calculated using the ratio of disease severity on treated plants relative to untreated plants. Example G: Evaluation of Fungicidal Activity: Leaf Spot of Sugar Beets (Cercospora beticola; Bayer Code CERCBE) Sugar beet plants (variety HH88) were grown in soil-less Metro mix and trimmed regularly to maintain a uniform plant size prior to test. Plants were inoculated with a spore suspension 24 hr after fungicide treatments. Inoculated plants were kept in a dew chamber at 22° C. for 48 hr then incubated in a greenhouse set at 24° C. under a clear plastic hood with bottom ventilation until disease symptoms were fully expressed. Fungicide formulation, application and disease assessment on the sprayed leaves followed the procedures as described in the Example A.

[2] = 24 h, 1 day protectant, read-out: SEPTTR disease control, 1DP (1 Day Protectant)
[3] = 72 h, 3 day curative, read-out: SEPTTR disease control, 3DC (3 Day Curative)

| Structure (SMILES) | pest or weed control at 100 ppm (Zymoseptoria tritici; [2]) [%] | pest or weed control at 121.5 g/ha (Zymoseptoria tritici; [2]) [%] | pest or weed control at 100 ppm (Zymoseptoria tritici; [3]) [%] | pest or weed control at 100 ppm (Uncinula necator) [%] | pest or weed control at 100 ppm [1] [%] | pest or weed control at 100 ppm (Cercospora beticola) [%] | pest or weed control at 121.5 g/ha (Zymoseptoria tritici; [3]) [%] |
| --- | --- | --- | --- | --- | --- | --- | --- |
| CCCCO[C@H]1CCOC[C@H](NC(=O)c2nccc(OC)c2OCOC(C)=O)C(=O)O[C@@H](C)[C@@H]1OCc1ccccc1 [Compound 2] | > 80 | < 80 | < 80 | < 80 | > 80 | > 80 |  |
| CCCCO[C@H]1CCOC[C@H](NC(=O)c2nccc(OC)c2OCOC(C)=O)C(=O)O[C@@H](C)[C@@H]1OC(=O)C(C)C [Compound 3] | > 80 |  | < 80 | < 80 | > 80 | < 80 |  |
| CCCCO[C@H]1CCOC[C@H](NC(=O)c2nccc(OC)c2OCOC(C)=O)C(=O)O[C@@H](C)[C@@H]1OC(=O)c1ccccc1 [Compound 4] | > 80 | < 80 | < 80 | < 80 | > 80 | < 80 |  |
| CCCCO[C@H]1CCOC[C@H](NC(=O)c2nccc(OC)c2OCOC(C)=O)C(=O)O[C@@H](C)[C@@H]1OC(=O)C1CC1 [Compound 5] | > 80 |  | < 80 | < 80 | < 80 | < 80 |  |
| COc1ccnc(C(=O)N[C@H]2COCC[C@@H](OCC(C)C)[C@@H](OCC(C)C)[C@H](C)OC2=O)c1OCOC(C)=O [Compound 6] | > 80 |  |  | < 80 | > 80 | > 80 |  |
| CCCCCO[C@H]1[C@H](C)OC(=O)[C@@H](NC(=O)c2nccc(OC)c2OCOC(C)=O)CCCC[C@@H]1Oc1ccccc1 [Compound 17] | > 80 |  | > 80 | > 80 | > 80 | > 80 |  |
| CCCO[C@H]1[C@H](C)OC(=O)[C@@H](NC(=O)c2nccc(OC)c2OCOC(C)=O)CCCC[C@@H]1Oc1ccccc1 [Compound 18] | > 80 |  | > 80 | < 80 | > 80 | > 80 |  |
| COc1ccnc(C(=O)N[C@H]2CCCC[C@H](Oc3ccccc3)[C@@H](Oc3ccccc3)[C@H](C)OC2=O)c1OCOC(C)=O [Compound 19] | > 80 | > 80 | > 80 | < 80 | > 80 | > 80 | > 80 |
| COc1ccnc(C(=O)N[C@H]2COCC[C@H](Cc3ccccc3)[C@@H](OCC(C)C)[C@H](C)OC2=O)c1OCOC(C)=O [Compound 20] |  | < 80 |  | > 80 |  | > 80 | > 80 |
| COc1ccnc(C(=O)N[C@H]2COCC[C@H](Cc3ccccc3)[C@@H](OCC(C)C)[C@H](C)OC2=O)c1OC(C)=O [Compound 21] |  | < 80 |  | > 80 |  | < 80 | > 80 |
| COc1ccnc(C(=O)N[C@H]2CCOC[C@H](Oc3ccccc3)[C@@H](Oc3ccccc3)[C@H](C)OC2=O)c1OCOC(C)=O [Compound 37] |  | > 80 |  | > 80 | > 80 | > 80 | > 80 |
